The experiment concerns the target T1, TRPC4 (Homo sapiens, UniProt Q9UBN4).
T1 construct: human TRPC4a channel
T1 sequence (Q9UBN4 1-977): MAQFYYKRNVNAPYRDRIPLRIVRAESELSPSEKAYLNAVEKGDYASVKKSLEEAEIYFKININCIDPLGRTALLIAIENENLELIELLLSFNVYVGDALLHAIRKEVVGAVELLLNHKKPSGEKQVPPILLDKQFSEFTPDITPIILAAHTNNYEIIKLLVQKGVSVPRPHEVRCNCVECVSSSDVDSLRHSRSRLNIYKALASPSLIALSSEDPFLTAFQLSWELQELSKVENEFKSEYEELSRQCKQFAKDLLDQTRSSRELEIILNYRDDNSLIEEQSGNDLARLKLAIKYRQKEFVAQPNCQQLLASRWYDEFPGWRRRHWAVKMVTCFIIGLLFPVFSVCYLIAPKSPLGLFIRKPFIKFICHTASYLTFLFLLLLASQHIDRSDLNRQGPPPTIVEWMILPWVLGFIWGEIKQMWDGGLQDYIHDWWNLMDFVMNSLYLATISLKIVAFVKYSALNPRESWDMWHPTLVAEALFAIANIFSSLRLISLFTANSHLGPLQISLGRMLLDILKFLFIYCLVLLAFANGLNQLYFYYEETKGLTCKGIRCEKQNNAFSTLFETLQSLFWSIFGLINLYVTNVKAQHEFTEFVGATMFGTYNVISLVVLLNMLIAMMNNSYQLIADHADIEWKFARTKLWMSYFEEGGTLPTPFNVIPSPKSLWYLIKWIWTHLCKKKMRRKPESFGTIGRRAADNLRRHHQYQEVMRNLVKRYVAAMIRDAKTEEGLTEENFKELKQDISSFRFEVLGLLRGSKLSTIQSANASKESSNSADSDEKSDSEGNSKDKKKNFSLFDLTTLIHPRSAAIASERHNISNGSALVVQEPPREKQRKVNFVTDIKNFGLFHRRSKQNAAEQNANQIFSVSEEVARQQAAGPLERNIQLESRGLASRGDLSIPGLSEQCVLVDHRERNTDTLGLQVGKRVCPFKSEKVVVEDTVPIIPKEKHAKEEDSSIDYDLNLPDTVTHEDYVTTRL
The experiment in a line: whole-cell patch clamp in HEK293-TRPC4 cells (EA-evoked current); also Ca2+ influx assay. The format is cell-based. On the technique in general: The patch-clamp technique gives a direct electrical read-out from membranes.

A word on the IC50: it is the concentration at which inhibition is half-maximal. `C=C(C)[C@@H]1CCC(C)=C[C@H]1c1c(O)cc(CCCCC)cc1O` [CBD, Cannabidiol] came in with a half-inhibitory concentration (IC50) of 1520 ± 600 nM.

Values taken from paper PMC11603362, “Cannabidiol inhibits transient receptor potential canonical 4 and modulates excitability of pyramidal neurons in mPFC” (Frontiers in Pharmacology, 2024).
